Data published in US12552771B2, “Carboxylic acid containing azetidinyl compounds for the treatment of neurodegenerative diseases” (Celgene Corporation, priority 2021, dated 2026).

Molecular target: T1, S1P5 receptors (Homo sapiens, UniProt Q9H228)
T1 construct: expressed in transfected cells; host or cells: CHO cells (membranes)
Assay: [35S]-GTPγS binding assay with CHO-S1P5 receptor membranes
Assay type: biochemical
Conditions: membranes of CHO cells expressing recombinant S1P5 receptors; measure of S1P5 agonism
How it was run: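 Membranes from CHO cells expressing recombinant S1P5 were preincubated for 30 min at RT with compound, GDP and WGA SPA beads. The buffer was 20 mM HEPES, 10 mM MgCl2, 100 mM NaCl, 1 mM EDTA, 0.1% fatty-acid-free BSA and 30 μg/mL saponin, pH 7.4. [35S]GTPγS (200 pM final) was added for 40 min, and bound radioactivity read as agonism; S1P was the control.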

T1 sequence (Q9H228 whole entry): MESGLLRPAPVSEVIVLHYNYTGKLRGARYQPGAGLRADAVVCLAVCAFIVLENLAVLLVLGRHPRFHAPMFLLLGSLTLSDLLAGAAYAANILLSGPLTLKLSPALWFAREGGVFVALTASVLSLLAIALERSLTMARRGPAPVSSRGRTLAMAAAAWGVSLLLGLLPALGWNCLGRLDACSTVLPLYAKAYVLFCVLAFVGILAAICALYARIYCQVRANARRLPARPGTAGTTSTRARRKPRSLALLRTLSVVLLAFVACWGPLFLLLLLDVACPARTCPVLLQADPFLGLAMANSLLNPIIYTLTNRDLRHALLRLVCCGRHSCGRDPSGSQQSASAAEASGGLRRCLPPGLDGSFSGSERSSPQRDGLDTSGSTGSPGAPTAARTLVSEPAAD

Row | Compound | EC50 [nM]
1 | O=C(O)C1CCN(C2CCc3cc(N4CC(c5c(F)cccc5F)C4)ccc32)CC1 (single isomer, unassigned) [Compound 9b, 1-(5-(3-(2,6-difluorophenyl)azetidin-1-yl)-2,3-dihydro-1H-inden-1-yl)piperidine-4-carboxylic acid] | 100 to 1000
2 | O=C(O)C1CCN(C2CCc3cc(C4CN(c5cccc(F)c5)C4)ccc32)CC1 (single isomer, unassigned) [Compound 3b, 1-(5-(1-(3-fluorophenyl)azetidin-3-yl)-2,3-dihydro-1H-inden-1-yl)piperidine-4-carboxylic acid] | 1000 to 10000

Second part, the compound after the results:

Row | EC50 [nM] | Compound
3 | 10 to 100 | Cc1cc(C2CN(c3c(F)cccc3F)C2)cc(C)c1CN1CCC(C(=O)O)CC1 [Compound 44, 1-(4-(1-(2,6-difluorophenyl)azetidin-3-yl)-2,6-dimethylbenzyl)piperidine-4-carboxylic acid]
4 | 10 to 100 | O=C(O)C1CCN(Cc2ccc(C3CN(c4c(Cl)cccc4Cl)C3)cc2)CC1 [Compound 11, 1-(4-(1-(2,6-dichlorophenyl)azetidin-3-yl)benzyl)piperidine-4-carboxylic acid]
5 | 10 to 100 | O=C(O)C1CCN(C2CCc3cc(N4CC(c5ccccc5F)C4)ccc32)CC1 (single isomer, unassigned) [Compound 10a, 1-(5-(3-(2-fluorophenyl)azetidin-1-yl)-2,3-dihydro-1H-inden-1-yl)piperidine-4-carboxylic acid]
